One test addresses human PTPN1 (1-435) (Homo sapiens (Human), UniProt P18031). Nature of the test: Human PTPN1 Biochemical Assay. As to conditions: DiFMUP substrate, read-out: PTP1B IC50. An outline of the steps: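 Read-out is DiFMUP hydrolysis fluorescence (360 nm excitation, 460 nm emission) after 1 h at room temperature, following 30 min enzyme–compound preincubation.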
The next test has as its target human PTPN2 (1-387) (Homo sapiens (Human), UniProt P17706). Nature of the test: Human PTPN2 Biochemical Assay. As to conditions: DiFMUP substrate. An outline of the steps:
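Human PTPN2 (1-387) preincubated 30 min at RT with compound (10-point 3-fold series) in Tris pH 7.4 buffer with 0.5 mM DTT, then DiFMUP substrate added for 1 h at RT. Fluorescence at ex 360/em 460 nm, normalised to no-enzyme and enzyme controls; EC50 from 4-parameter fit.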

Sequence of human PTPN2 (1-387) (P17706 other isoform, or with tags, fused parts or gaps): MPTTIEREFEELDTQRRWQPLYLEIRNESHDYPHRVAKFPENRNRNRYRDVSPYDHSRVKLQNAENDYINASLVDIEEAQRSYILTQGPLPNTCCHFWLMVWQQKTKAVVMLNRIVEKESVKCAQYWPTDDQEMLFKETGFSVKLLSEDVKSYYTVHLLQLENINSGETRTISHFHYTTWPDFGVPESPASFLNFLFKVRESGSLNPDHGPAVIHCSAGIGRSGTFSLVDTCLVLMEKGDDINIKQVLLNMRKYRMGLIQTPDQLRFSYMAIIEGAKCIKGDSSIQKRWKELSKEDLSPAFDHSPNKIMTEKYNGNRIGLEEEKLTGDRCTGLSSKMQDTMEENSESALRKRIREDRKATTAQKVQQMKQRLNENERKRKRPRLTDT
Sequence of human PTPN1 (1-435) (P18031 whole entry): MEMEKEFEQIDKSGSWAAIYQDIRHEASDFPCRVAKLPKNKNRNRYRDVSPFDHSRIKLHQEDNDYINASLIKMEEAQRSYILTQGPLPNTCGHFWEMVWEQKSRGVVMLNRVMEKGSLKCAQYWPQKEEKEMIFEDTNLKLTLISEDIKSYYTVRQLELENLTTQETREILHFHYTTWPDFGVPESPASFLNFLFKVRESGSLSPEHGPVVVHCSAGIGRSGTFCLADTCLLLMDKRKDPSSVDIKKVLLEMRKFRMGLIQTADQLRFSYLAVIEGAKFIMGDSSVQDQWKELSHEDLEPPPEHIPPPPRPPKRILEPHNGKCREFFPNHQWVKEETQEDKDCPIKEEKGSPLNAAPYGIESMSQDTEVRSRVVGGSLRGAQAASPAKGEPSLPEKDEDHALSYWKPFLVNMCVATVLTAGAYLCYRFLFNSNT

As for `NC(=O)c1cc(OCCC2CCCS2(=O)=O)c2sc(C(F)(F)P(=O)(O)O)c(Br)c2c1` (single isomer, unassigned) [Compound 371], the results for the IC50 on human PTPN1 (1-435) and on human PTPN2 (1-387) were 18 nM and 26.9 nM, respectively.
`O=P(O)(O)C(F)(F)c1sc2c(OCCCC(F)(F)F)cc(-c3nnc(C4CC4)[nH]3)cc2c1Br` [Compound 418]: the results for the IC50 on human PTPN1 (1-435) and on human PTPN2 (1-387) were 2.5 nM and 2.7 nM, respectively.
In the same order, the values of `CNS(=O)(=O)c1cc(OCCCC(F)(F)F)c2sc(C(F)(F)P(=O)(O)O)c(Br)c2c1` [Compound 459, ((3-bromo-5-(N-methylsulfamoyl)-7-(4,4,4-trifluorobutoxy)benzo[b]thiophen-2-yl)difluoromethyl)phosphonic acid] are 616 nM and 892 nM.
Regarding `N=C(N)c1cc(OCCCC(F)(F)F)c2sc(C(F)(F)P(=O)(O)O)c(Br)c2c1` [Compound 262, ((3-bromo-5-carbamimidoyl-7-(4,4,4-trifluorobutoxy)benzo[b]thiophen-2-yl)difluoromethyl)phosphonic acid], the IC50 on human PTPN1 (1-435) came out at 42 nM; against human PTPN2 (1-387), 113 nM.
In the same order, the values of `CS(=O)(=O)c1ccc(COc2cc(-c3cnn[nH]3)cc3c(Br)c(C(F)(F)P(=O)(O)O)sc23)cc1` [Compound 369] are less than 2.5 nM and less than 2.5 nM.
In the same order, the values of `NC(=O)c1cc(OCC2CC3(CC3)C2)c2sc(C(F)(F)P(=O)(O)O)c(Br)c2c1` [Compound 249] are 84.5 nM and 60.9 nM.
In the same order, the values of `CNC(=O)c1cc(OCc2ccc(S(C)(=O)=O)cc2)c2sc(C(F)(F)P(=O)(O)O)c(Br)c2c1` [Compound 409] are 3.7 nM and 2.6 nM.
On to `NC(=O)c1cc(OCC(F)CC(F)(F)F)c2sc(C(F)(F)P(=O)(O)O)c(Br)c2c1` (stereo not drawn) [Compound 464, ((3-bromo-5-carbamoyl-7-(2,4,4,4-tetrafluorobutoxy)benzo[b]thiophen-2-yl)difluoromethyl)phosphonic acid], for which the IC50 at human PTPN1 (1-435) was 42.6 nM; against human PTPN2 (1-387) it was 39.7 nM.
In the same order, the values of `O=C(Nc1cccc(OCC2CCCO2)c1)c1ccc2sc(C(F)(F)P(=O)(O)O)c(Br)c2c1` (stereo not drawn) [Compound 17] are 1460 nM and 1910 nM.
For the compound `O=P(O)(O)C(F)(F)c1sc2ccc(OCCc3ccccc3)cc2c1Br` [Compound 221, ((3-bromo-5-phenethoxybenzo[b]thiophen-2-yl)difluoromethyl)phosphonic acid], the IC50 at human PTPN1 (1-435) amounted to 3460 nM; against human PTPN2 (1-387) it was 6680 nM.
Take `O=C(Nc1ccccc1)c1ccc2sc(C(F)(F)P(=O)(O)O)c(Cl)c2c1` [Compound 215, ((3-chloro-5-(phenylcarbamoyl)benzo[b]thiophen-2-yl)difluoromethyl)phosphonic acid]: the IC50 on human PTPN1 (1-435) turned out to be 7550 nM; at human PTPN2 (1-387) it was 8430 nM.
With `O=C(O)c1cc(OCCCC(F)(F)F)c2sc(C(F)(F)P(=O)(O)O)c(Br)c2c1` [Compound 407], the IC50 at human PTPN1 (1-435) stood at 191 nM; against human PTPN2 (1-387) it was 200 nM.
The corresponding values for `CC(Cn1ccc2ccccc21)NC(=O)c1ccc2sc(C(F)(F)P(=O)(O)O)c(Br)c2c1` (stereo not drawn) [Compound 81] are 114 nM and 27.3 nM.
The corresponding values for `O=P(O)(O)C(F)(F)c1sc2c(OCCCC(F)(F)F)cc(CN3CCOCC3)cc2c1Br` [Compound 263, ((3-bromo-5-(morpholinomethyl)-7-(4,4,4-trifluorobutoxy)benzo[b]thiophen-2-yl)difluoromethyl)phosphonic acid] are 386 nM and 651 nM.
In the same order, the values of `N#CC1(CNC(=O)c2ccc3sc(C(F)(F)P(=O)(O)O)c(Br)c3c2)CC1` [Compound 38] are 3400 nM and 4240 nM.

Usually IC50 stands for the concentration that gives 50% inhibition.

The record behind these values is patent US20250059220A1, “SUBSTITUTED BENZOTHIOPHENE DERIVATIVES AND METHODS OF USE THEREOF” (Merck Sharp & Dohme LLC, priority 2021, published 2025).
